What follows are molecules tested on NCI-H1975 cells (assay: 3D cell proliferation assay). Settings: Homo sapiens, ultra low attachment plate, 96 hours, 3D CTG.
Format: cell-based
Method: This assay supports the molecular mode of action of compounds. Low IC50 values are indicative of high potency of the SOS1 inhibition. […] This supports the molecular mode of action of the SOS1 inhibitors as selectively targeting cancer cells dependent on receptor tyrosine kinase-RAS/SOS1-family protein function. Cell proliferation assays were performed in three-dimensional (3D) anchorage-independent conditions in 96 well ultra-low attachment plate with the following human cell lines:
NCI-H1975: human non-small cell lung cancer (NSCLC) with wild type KRAS and EGFR L858R/T790M mutation;
Cell lines were purchased from the American Type Culture Collection (ATCC), NCI, or European Collection of Authenticated Cell Cultures (ECACC). All cell lines were maintained in RPMI-1640 or DMEM with 10% heat inactivated fetal bovine serum.
Cells growing in log phase were detached with Gibco™ TrypLE™ Express Enzyme and plated in 96 well ultra low attachment plate at 15000 to 20000 cells/well in 100 μl of media. After overnight incubation at 37° C. and 5% CO2, the cells were treated with compounds (50 μL/well) at the final concentrations spanning 1 nM to 20 μM. Cells were incubated at 37° C., 5% CO2 and 95% humidity incubator for 96 hours. At the end of incubation, a 3D CTG reagent from Promega was added to each well according to vendors recommendation and mixed for 10 minutes in dark. The luminescence signals were determined using Biotek plate reader. The data was fitted using a sigmoidal curve analysis program (GraphPAD Prism) with variable hill slope.
Molecule `C#C[C@@H](Nc1ncnc2c1cc(C1(O)CCN(C(C)=O)C1)c(=O)n2C)c1cccc(C(F)F)c1F` (stereo partly drawn) [Compound 43, 6-(1-acetyl-3-hydroxypyrrolidin-3-yl)-4-{[(1R)-1-[3-(difluoromethyl)-2-fluorophenyl]prop-2-yn-1-yl]amino}-8-methyl-7H,8H-pyrido[2,3-d]pyrimidin-7-one] has an IC50 of 0.1 to 0.5 µM. For `C#C[C@@H](Nc1nc(C)nc2c1cc(C1(O)CCN(C(C)=O)CC1)c(=O)n2C)c1cccc(C(F)(F)F)c1C` [Compound 54, 6-(1-acetyl-4-hydroxypiperidin-4-yl)-2,8-dimethyl-4-{[(1R)-1-[2-methyl-3-(trifluoromethyl)phenyl]prop-2-yn-1-yl]amino}-7H,8H-pyrido[2,3-d]pyrimidin-7-one], the IC50 was < 0.1 µM. With `C#C[C@@H](Nc1nc(C)nc2c1cc(C1(OC)CCN(C(C)=O)CC1)c(=O)n2C)c1cccc(C(F)(F)F)c1C` [Compound 55, 6-(1-acetyl-4-methoxypiperidin-4-yl)-2,8-dimethyl-4-{[(1R)-1-[2-methyl-3-(trifluoromethyl)phenyl]prop-2-yn-1-yl]amino}-7H,8H-pyrido[2,3-d]pyrimidin-7-one] the IC50 was < 0.1 µM. In the case of `C#C[C@@H](Nc1ncnc2c1cc(C1(NC(C)=O)CCN(C(C)=O)CC1)c(=O)n2C)c1cccc(C(F)(F)F)c1C` [Compound 57, (R)-N-(1-acetyl-4-(8-methy-4-((1-(2-methyl-3-(trifluoromethyl)phenyl)prop-2-yn-1-yl)amino)-7-oxo-7,8-dihydropyrido[2,3-d]pyrimidin-6-yl)piperidin-4-yl)acetamide], the IC50 is reported as < 0.1 µM. In the case of `C#C[C@@H](Nc1ncnc2c1cc(C1(O)CCN(C(C)=O)CC1)c(=O)n2C)c1cccc(C(F)F)c1F` [Compound 46, 6-(1-acetyl-4-hydroxypiperidin-4-yl)-4-{[(1R)-1-[3-(difluoromethyl)-2-fluorophenyl]prop-2-yn-1-yl]amino}-8-methyl-7H,8H-pyrido[2,3-d]pyrimidin-7-one], the IC50 is reported as < 0.1 µM. In the case of `C#C[C@@H](Nc1nc(C)nc2cc(=O)n(C3(C(F)F)CC3)cc12)c1cccc(C(F)(F)F)c1C` [Compound 9, (R)-6-(1-(difluoromethyl)cyclopropyl)-2-methyl-4-((1-(2-methyl-3-(trifluoromethyl)phenyl)prop-2-yn-1-yl)amino)pyrido[4,3-d]pyrimidin-7(6H)-one], the IC50 is reported as < 0.1 µM. In the case of `C#C[C@@H](Nc1ncnc2c1cc(C1(OC)CCN(C(C)=O)C1)c(=O)n2C)c1cccc(C(F)F)c1F` (stereo partly drawn) [Compound 49, 6-(1-acetyl-3-methoxypyrrolidin-3-yl)-4-{[(1R)-1-[3-(difluoromethyl)-2-fluorophenyl]prop-2-yn-1-yl]amino}-8-methyl-7H,8H-pyrido[2,3-d]pyrimidin-7-one], the IC50 is reported as < 0.1 µM. For `C#C[C@@H](Nc1nc(C)nc2cc(=O)n(C3CCOCC3)cc12)c1cccc(C(F)(F)F)c1C` [Compound 4, (R)-2-methyl-4-((1-(2-methyl-3-(trifluoromethyl)phenyl)prop-2-yn-1-yl)amino)-6-(tetrahydro-2H-pyran-4-yl)pyrido[4,3-d]pyrimidin-7(6H)-one], the IC50 was 0.1 to 0.5 µM. For `C#C[C@@H](Nc1ncnc2c1cc(C1(NC(C)=O)CCOCC1)c(=O)n2C)c1cccc(C(F)(F)F)c1C` [Compound 58, (R)-N-(4-(8-methy-4-((1-(2-methyl-3-(trifluoromethyl)phenyl)prop-2-yn-1-yl}amino)-7-oxo-7,8-dihydropyrido[2,3-d]pyrimidin-6-yl)tetrahydro-2H-pyran-4-yl)acetamide], the IC50 was < 0.1 µM. `C#C[C@@H](Nc1ncnc2c1cc(C1(OC)CCN(C(C)=O)CC1)c(=O)n2C)c1cccc(C(F)F)c1F` [Compound 48, (R)-6-(1-acetyl-4-methoxypiperidin-4-yl)-4-((1-(3-(difluoromethyl)-2-fluorophenyl)prop-2-yn-1-yl)amino)-8-methylpyrido[2,3-d]pyrimidin-7(8H)-one] was tested, and the IC50 was < 0.1 µM. With `C#C[C@@H](Nc1nc(C)nc2c1cc(C1(F)CCN(C(C)=O)CC1)c(=O)n2C)c1cccc(C(F)(F)F)c1C` [Compound 56, 6-(1-acetyl-4-fluoropiperidin-4-yl)-2,8-dimethyl-4-{[(1R)-1-[2-methyl-3-(trifluoromethyl)phenyl]prop-2-yn-1-yl]amino}-7H,8H-pyrido[2,3-d]pyrimidin-7-one] the IC50 was < 0.1 µM.
